# Experimental data as given in patent US20140050778A1, “NUCLEIC ACID BINDING COMPOUNDS, METHODS OF MAKING, AND USE THEREOF” (UNIVERSITY OF ROCHESTER, priority 2010, published 2014).
# Legend:
# (CUG)10 RNA = assay: Fluorescence titration (benzo[g]quinoline quenching); type: binding; details: (CUG)10, 1 μM compound in HBS-N, read-out: Apparent KD
# Experimental: The benzo[g]quinoline moiety is fluorescent, with excitation and emission maxima at 362 nm and 439 nm respectively in methanol. Fluorescence titration binding measurements were performed on a Cary Eclipse fluorescence spectrophotometer using a 10 mm path-length semimicro quartz fluorescence cell with 400 μL sample holding capacity. Absorbance measurements were carried out on a UV-Visible spectrophotometer (Shimadzu, UV-1601PC) using a 1 mL (1 cm path-length) quartz cell. Spectroscopic grade anhydrous methanol used in the measurement of relative quantum yield of the 2-ethyl benzo[g]quinoline carboxylic acid was purchased from Alfa Aesar and was used without further purification. For these measurements, known procedures were used (Lee and Grissom, “Design, Synthesis, and Characterization of Fluorescent Cobalamin Analogues with High Quantum Efficiencies,” Org. Lett. 11:2499-2502 (2009); Joseph R. Lakowicz, Principles of Fluorescence Spectroscopy, 2nd edition (Kluwer Academic/Plenum Publishers, 1999), which are hereby incorporated by reference in their entirety). Briefly, RNA (10 μM stock) in HBS-N buffer was titrated into a solution of 1 μM compound in HBS-N. After each addition of RNA, ten minutes were allowed for equilibration before recording the change in fluorescence at 468.5 nm. Fluorescence units (“FU”) were then corrected for dilution and the FU after each addition was subtracted from the FU at zero RNA concentration to give AFU. Following saturation, AFU was plotted against RNA concentration using Origin 7 (OriginLab, Inc.), and fitted to a 1:1 Langmuir binding model to obtain apparent dissociation constants (Kn). […]
# Selected equilibrium affinities for (CUG)10 were confirmed by fluorescence titration. The quantum yield of the ethylbenzo[g]quinoline carboxylic acid (compound 2), relative to quinine sulfate, was determined to be 0.64 (FIGS. 5A-F). […] Apparent KD values measured in this manner are consistent with those obtained by SPR (Table 6); that they are not identical to SPR-measured values likely results from the differing formats of the two methods. […]
# yeast tRNA = assay: Fluorescence titration control; type: binding; details: yeast tRNA titrated into a mixture of compounds 4 and 5
# Experimental: The benzo[g]quinoline moiety is fluorescent, with excitation and emission maxima at 362 nm and 439 nm respectively in methanol. Fluorescence titration binding measurements were performed on a Cary Eclipse fluorescence spectrophotometer using a 10 mm path-length semimicro quartz fluorescence cell with 400 μL sample holding capacity. Absorbance measurements were carried out on a UV-Visible spectrophotometer (Shimadzu, UV-1601PC) using a 1 mL (1 cm path-length) quartz cell. Spectroscopic grade anhydrous methanol used in the measurement of relative quantum yield of the 2-ethyl benzo[g]quinoline carboxylic acid was purchased from Alfa Aesar and was used without further purification. For these measurements, known procedures were used (Lee and Grissom, “Design, Synthesis, and Characterization of Fluorescent Cobalamin Analogues with High Quantum Efficiencies,” Org. Lett. 11:2499-2502 (2009); Joseph R. Lakowicz, Principles of Fluorescence Spectroscopy, 2nd edition (Kluwer Academic/Plenum Publishers, 1999), which are hereby incorporated by reference in their entirety). Briefly, RNA (10 μM stock) in HBS-N buffer was titrated into a solution of 1 μM compound in HBS-N. After each addition of RNA, ten minutes were allowed for equilibration before recording the change in fluorescence at 468.5 nm. […]
# Selected equilibrium affinities for (CUG)10 were confirmed by fluorescence titration. […]
# human fibroblasts = assay: Cell permeability by fluorescence microscopy; type: cell-based; details: intrinsic fluorescence, 4 and 5 incubated as a mixture
# Experimental: For cell permeability studies, human fibroblasts or mouse myoblasts grown to 80% confluence were exposed to compounds for 12 hours in a 96 well tissue culture plate. After removal of the culture media (DMEM, with 10% FBS, 1% pen-strep (GIBCO)) the cells were washed twice with PBS to remove excess compounds. Cells were then imaged while in buffer under a fluorescence microscope (Olympus IX70) in the 96-well plate using a 460 nm emission filter.
# SPR and fluorescence titration experiments, performed using the protocol described in Examples 3 and 4 above, except using as the target a highly conserved RNA sequence responsible for regulating the production of the Gag-Pol polyprotein via a −1 ribosomal frameshift, which occurs along a “slippery sequence” in gag-pol mRNA (SEQ ID NO: 7). This “frameshift stimulatory sequence” (or “HIV-1 FSS”) consists of an upper stemloop and a lower stem, separated by a purine bulge in the most common types of HIV (FIG. 19). For the fluorescent titration experiments, the upper stemloop of SEQ ID NO: 7 was employed. Cell uptake and toxicity studies were carried out using human fibroblasts according to Example 5 above.
# mouse myoblasts = assay: MTT toxicity assay; type: cell-based; details: individually
# Experimental: For toxicity studies, mouse myoblasts or human fibroblasts were plated in a 96-well tissue culture plate in DMEM (10% fetal bovine serum, 100 units/ml penicillin, […]) and allowed to grow to approximately 80% confluence at 37° C. under CO2. Varying compound concentrations (up to 1 mM) were incubated with cells (48 hours, 37° C.). Media was then removed, and 3-(4,5-dimethylthiazol-2-yl)-2,5-diphenyltetrazolium bromide (“MTT”) in media was added to each well and incubated at 37° C. for 4 h. After removal of the MTT media, isopropanol (100 pp was added, and absorbance was measured at 600 nm on a Modulus microplate reader (Turner Biosystems).
Compound,Kd ((CUG)10 RNA) [nM],binding of yeast tRNA (yeast tRNA),cell membrane penetration / localization (human fibroblasts),toxicity (MTT) (mouse myoblasts)
CCc1nc2cc3ccccc3cc2cc1C(=O)N1CCC[C@H]1C(=O)N[C@@H](C/C=C/C[C@H](NC(=O)[C@@H]1CCCN1C(=O)c1cc2cc3ccccc3cc2nc1CC)C(=O)N[C@@H](CCCCN)C(=O)NCCCN)C(=O)N[C@@H](CCCCN)C(=O)NCCCN [Compound 5],70.4 ± 1.1,No binding,"Localization is shown, especially in the nucleus of cells",increasing toxicity was observed in mouse myoblasts above 100 μM
CCc1nc2cc3ccccc3cc2cc1C(=O)N1CCC[C@H]1C(=O)N[C@@H](C/C=C\C[C@H](NC(=O)[C@@H]1CCCN1C(=O)c1cc2cc3ccccc3cc2nc1CC)C(=O)N[C@@H](CCCCN)C(=O)NCCCN)C(=O)N[C@@H](CCCCN)C(=O)NCCCN [Compound 4],66.3 ± 2.1,No binding,"Localization is shown, especially in the nucleus of cells",increasing toxicity was observed in mouse myoblasts above 100 μM
